Experimental data: ChEMBL document CHEMBL1201862, “PubChem BioAssay data set” (2004)
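Following 48 hours of exposure in 96-well plates, responses at five concentrations were used to interpolate endpoints linearly. GI50 marks 50% less growth.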 Active and inactive are the calls of the source. Rule as the data show it: active = GI50 up to about 1.1 µM and inactive = higher.

Key:
Experiment in all cases: NCI anticancer screen, dose series, 48 h
[1] = tested on: CCRF-CEM
[2] = tested on: K562
[3] = tested on: SK-MEL-2
[4] = tested on: KM12
[5] = tested on: HT-29
[6] = tested on: Malme-3M
[7] = tested on: MCF7
[8] = tested on: NCI/ADR-RES
[9] = tested on: CAKI-1
[10] = tested on: SN12C
[11] = tested on: OVCAR-5
[12] = tested on: SF-268
[13] = tested on: SF-295
[14] = tested on: HCT-116
[15] = tested on: BT-549
[16] = tested on: HCC 2998
[17] = tested on: TK-10
[18] = tested on: MOLT-4
[19] = tested on: M14
[20] = tested on: HOP-62
[21] = tested on: UACC-257
[22] = tested on: HOP-92
[23] = tested on: 786-0
[24] = tested on: DU-145
[25] = tested on: ACHN
[26] = tested on: SK-OV-3
[27] = tested on: U-251
[28] = tested on: OVCAR-3
[29] = tested on: SW-620
[30] = tested on: UO-31
[31] = tested on: PC-3
[32] = tested on: A498
[33] = tested on: A549
[34] = tested on: SR
[35] = tested on: HCT-15
[36] = tested on: MDA-N
[37] = tested on: MDA-MB-231
[38] = tested on: COLO 205
[39] = tested on: T47D
[40] = tested on: NCI-H226
[41] = tested on: SK-MEL-5
[42] = tested on: IGROV-1
[43] = tested on: RPMI-8226
[44] = tested on: OVCAR-8
[45] = tested on: SNB-75
[46] = tested on: UACC-62
[47] = tested on: NCI-H522
[48] = tested on: HL-60
[49] = tested on: EKVX
[50] = tested on: NCI-H23
[51] = tested on: SF-539
[52] = tested on: MDA-MB-435
[53] = tested on: LOX IMVI
[54] = tested on: NCI-H460
[55] = tested on: OVCAR-4
[56] = tested on: RXF 393
[57] = tested on: SNB-19
[58] = tested on: SK-MEL-28
[59] = tested on: Hs-578T

Measured: GI50

O=C(NNC(=S)Nc1ccccc1)c1csc(NC(=S)NC2CCCCC2)n1
inactive: [1] 54.8 µM | [2] > 10 µM | [3] > 100 µM | [4] > 100 µM | [5] 15.6 µM | [6] > 100 µM | [7] 64.9 µM | [8] 85.7 µM | [9] > 100 µM | [10] 91.4 µM | [11] > 100 µM | [12] 99.3 µM | [13] > 100 µM | [14] 67.1 µM | [15] 33 µM | [16] 10.5 µM | [17] > 100 µM | [18] 25.6 µM | [19] 69.8 µM | [20] > 100 µM | [21] 29 µM | [22] 94 µM | [23] 68.7 µM | [24] > 100 µM | [25] > 100 µM | [26] > 100 µM | [27] 48.4 µM | [28] 87.5 µM | [29] 52.7 µM | [30] 16.1 µM | [31] 62.4 µM | [32] > 100 µM | [33] > 100 µM | [34] 49.5 µM | [36] 50.8 µM | [37] 46.3 µM | [38] 40.1 µM | [39] 36.9 µM | [40] 9.59 µM | [41] 17.4 µM | [42] 29.5 µM | [43] 28.8 µM | [44] 56.5 µM | [45] 47.1 µM | [46] 38.9 µM | [47] 79.3 µM | [48] > 100 µM | [49] 20.1 µM | [50] > 100 µM | [51] 77.4 µM | [52] 35.5 µM | [53] 26.6 µM
33.3 µM: [35]

O=C(O)C(CCc1ccccc1)N1C(=O)c2ccccc2C1=O (stereo not given)
> 100 µM: [35]
inactive: [54] > 100 µM | [1] > 100 µM | [2] > 100 µM | [3] > 100 µM | [4] > 100 µM | [5] > 100 µM | [7] > 100 µM | [8] > 100 µM | [9] > 100 µM | [10] > 100 µM | [11] > 100 µM | [13] > 100 µM | [14] > 100 µM | [55] > 100 µM | [15] > 100 µM | [17] > 100 µM | [18] > 100 µM | [19] > 100 µM | [20] > 100 µM | [21] > 100 µM | [22] > 100 µM | [23] > 100 µM | [24] > 100 µM | [56] > 100 µM | [25] > 100 µM | [26] > 100 µM | [27] > 100 µM | [28] > 100 µM | [29] > 100 µM | [30] > 100 µM | [57] > 100 µM | [31] > 100 µM | [32] > 100 µM | [33] > 100 µM | [34] > 100 µM | [36] > 100 µM | [58] > 100 µM | [37] > 100 µM | [38] > 100 µM | [39] > 100 µM | [40] > 100 µM | [41] > 100 µM | [42] > 100 µM | [43] > 100 µM | [44] > 100 µM | [45] > 100 µM | [46] > 100 µM | [48] > 100 µM | [49] > 100 µM | [50] > 100 µM | [51] > 100 µM | [52] > 100 µM | [53] > 100 µM

CC(C)(C)[Si](C)(C)OCc1cccc(OCCOc2cccc(CO[Si](C)(C)C(C)(C)C)c2[N+](=O)[O-])c1[N+](=O)[O-]
inactive: [54] > 100 µM | [1] > 100 µM | [3] > 100 µM | [4] > 100 µM | [5] > 100 µM | [6] > 100 µM | [7] > 100 µM | [8] > 100 µM | [9] > 100 µM | [10] > 100 µM | [11] > 100 µM | [12] > 100 µM | [13] > 100 µM | [14] > 100 µM | [55] > 100 µM | [15] > 100 µM | [17] > 100 µM | [18] > 100 µM | [19] > 100 µM | [20] > 100 µM | [21] > 100 µM | [22] > 100 µM | [23] > 100 µM | [24] > 100 µM | [56] > 100 µM | [25] > 100 µM | [59] > 100 µM | [26] > 100 µM | [27] > 100 µM | [28] > 100 µM | [29] > 100 µM | [30] > 100 µM | [57] > 100 µM | [31] > 100 µM | [32] > 100 µM | [33] > 100 µM | [34] 66.2 µM | [36] > 100 µM | [58] > 100 µM | [38] > 100 µM | [39] > 100 µM | [40] > 100 µM | [41] > 100 µM | [42] > 100 µM | [44] > 100 µM | [45] > 100 µM | [46] > 100 µM | [47] > 100 µM | [48] > 100 µM | [49] > 100 µM | [50] > 100 µM | [51] > 100 µM | [52] > 100 µM | [53] > 100 µM
> 100 µM: [35]

O=[N+]([O-])c1cc([N+](=O)[O-])c(Nn2c3ccccc3c3ccccc32)c([N+](=O)[O-])c1
inactive: [54] 1.86 µM | [1] 2.16 µM | [2] 1.14 µM | [6] 1.42 µM | [7] 1.25 µM | [8] 3.24 µM | [10] 1.79 µM | [11] 4.63 µM | [12] 2.94 µM | [13] 1.25 µM | [55] 2.12 µM | [15] 2.18 µM | [16] 2.74 µM | [17] 2.2 µM | [19] 2.17 µM | [20] 1.87 µM | [23] 2.74 µM | [24] 4.15 µM | [25] 1.2 µM | [59] 2.46 µM | [27] 1.82 µM | [29] 3.02 µM | [30] 2.07 µM | [57] 3.04 µM | [31] 1.25 µM | [33] 2.82 µM | [36] 2.38 µM | [58] 3.3 µM | [38] 2.56 µM | [40] 1.4 µM | [41] 1.94 µM | [42] 2.18 µM | [44] 2.55 µM | [48] 3.51 µM | [49] 1.64 µM | [50] 1.43 µM | [51] 2.12 µM | [52] 1.56 µM
active: [4] 0.622 µM | [5] 0.857 µM | [18] 0.69 µM | [22] 0.346 µM | [34] 0.94 µM | [39] 0.641 µM | [43] 0.65 µM | [46] 0.933 µM | [47] 0.403 µM
2.58 µM: [35]

CCCCC1=C(C(=O)N2CCOCC2)C2(OCCO2)C1=O
18.2 µM: [35]
inactive: [54] 24.8 µM | [1] 32.2 µM | [3] 25.1 µM | [4] 20.4 µM | [5] 18.8 µM | [6] 20.6 µM | [7] 44.6 µM | [8] 22.2 µM | [9] 21.9 µM | [10] 13.5 µM | [11] 16.9 µM | [12] 24 µM | [13] 32.5 µM | [14] 18.5 µM | [55] 23.1 µM | [15] 23 µM | [17] 33.3 µM | [18] 51.2 µM | [19] 17.8 µM | [20] 23.6 µM | [21] 28.9 µM | [22] 23.1 µM | [23] 18.2 µM | [24] 33 µM | [56] 21.1 µM | [25] 17.4 µM | [59] 31.7 µM | [26] 62.4 µM | [27] 31.3 µM | [28] 19.5 µM | [29] 27.3 µM | [30] 15.5 µM | [57] 14 µM | [31] 31.8 µM | [32] 27.8 µM | [33] 18 µM | [34] 83.8 µM | [36] 21.4 µM | [58] 27.5 µM | [38] 17.7 µM | [39] 33.9 µM | [40] 2.86 µM | [41] 16.5 µM | [42] 17.9 µM | [44] 23.2 µM | [45] 43.5 µM | [46] 34.9 µM | [47] 15.7 µM | [48] 30.2 µM | [49] 26.2 µM | [50] 18.3 µM | [51] 23 µM | [52] 18.5 µM | [53] 12.8 µM
